Measurements: patent US4883758A, “Biologically pure culture of the microorganism Streptomycas tropolofaciens used for producing 3,7-dihydroxytropolone and antitumor use” (priority 1989, dated 1989)
Where two headings read alike, the source gives them in different places.

Columns and labels:
[1] = Kirst, et. al., J. Antibiotics 1982; cited from earlier work
[2] = tested on: B16-F10 murine melanoma tumor cells; assay: In vitro cytotoxicity against B16-F10 melanoma cells (72 h, neutral red); format: cell-based
Procedure: (§1) BU-3129T (3,7-dihydroxytropolone) and its analogs were tested for in vitro cytotoxicity against logarithmically growing murine melanoma tumor cells in liquid culture. B16-F10 cells (4×10^4 cells) in the enriched MEM (Minimum essential medium (Eagle's)) containing test material solution were planted into wells of 96-well microtiter plates and incubated at 37° C., with 5% CO2 under high humidity for 72 hours. After staining with neutral red, cytotoxicity of test material was determined colorimetrically. The inhibitory effects on macromolecule biosynthesis were examined in cultured L1210 leukemia cells. L1210 cells (5×10^5 cells) were exposed to radioactive precursors (^3 H-thymidine, ^14 C-uridine and ^3 H-leucine) for 60 min after the treatment with test material for 15 min. The incorporated radioactivities into acid-insoluble fractions were measured by using a liquid scintillation counter. The in vivo antitumor activity of BU-3129T was determined in male BDF1 mice against leukemia P388 and melanoma B16. Leukemia P388 and melanoma B 16 were inoculated by the intraperitoneal injection at 10^6 cells and 0.5 ml of a 10% tumor brei per mouse, respectively. Test material was administered to mice intraperitoneally once daily through 1 to 9 days after tumor implantation. Tropolone and mitomycin C were comparatively tested in the experiments.

Leukemia P388 = format: in vivo, male BDF1 mice; murine tumor; details: for T/C: MST
Procedure: as §1

Melanoma B16 [3] = assay: In vivo antitumor activity against melanoma B16 in mice, Exp. 1; design: species or system male BDF1 mice; murine tumor; details: for T/C: MST
Procedure: as §1

Melanoma B16 [4] = assay: In vivo antitumor activity against melanoma B16 in mice, Exp. 2; design: species or system male BDF1 mice; murine tumor; details: for Average weight change on day 5: B16 Exp. 2, qd 1→9, ip
Procedure: as §1

[5] = B16 Exp. 1, 0.16 mg/kg/day, qd 1→9, ip
[6] = B16 Exp. 1, 0.31 mg/kg/day, qd 1→9, ip
[7] = B16 Exp. 1, 0.63 mg/kg/day, qd 1→9, ip
[8] = B16 Exp. 1, 1.3 mg/kg/day, qd 1→9, ip
[9] = B16 Exp. 1, 2.5 mg/kg/day, qd 1→9, ip
[10] = P388, 0.63 mg/kg/day, qd 1→9, ip
[11] = B16 Exp. 1, 0.1 mg/kg/day, qd 1→9, ip
[12] = B16 Exp. 1, 0.3 mg/kg/day, qd 1→9, ip
[13] = B16 Exp. 1, 1.0 mg/kg/day, qd 1→9, ip

O=c1c(O)cccc(O)c1O [BU-3129T, 3,7-dihydroxytropolone]
Antimicrobial activity [1]: possesses antimicrobial activity
Potency in the in vitro cytotoxicity test [2]: most potent
Antitumor activity against leukemia P388 (in words) (Leukemia P388; mice bearing murine tumors, ip): no activity
Average weight change on day 5 (Melanoma B16 [3]; [5]): +0.4 g
MST (Melanoma B16 [3]; [5]): 16.0 days
Average weight change on day 5 (Melanoma B16 [3]; [6]): +1.2 g
MST (Melanoma B16 [3]; [6]): 18.0 days
Average weight change on day 5 (Melanoma B16 [3]; [7]): +1.0 g
MST (Melanoma B16 [3]; [7]): 23.0 days
Average weight change on day 5 (Melanoma B16 [3]; [8]): +0.4 g
MST (Melanoma B16 [3]; [8]): 29.0 days
Average weight change on day 5 (Melanoma B16 [3]; [9]): -0.8 g
MST (Melanoma B16 [3]; [9]): 12.0 days
tox (Melanoma B16 [3]; B16 Exp. 1, 5.0 mg/kg/day, qd 1→9, ip): tox
T/C (Melanoma B16 [3]; [5]): 100%
T/C (Melanoma B16 [3]; [6]): 113%
T/C (Melanoma B16 [3]; [7]): 144%
T/C (Melanoma B16 [3]; [8]): 181%
T/C (Melanoma B16 [3]; [9]): 75%
Antitumor activity against melanoma B16 (in words) (Melanoma B16 [3]; mice bearing murine tumors, ip): significant antitumor activity
Inhibitory action against mammalian malignant tumors (in words) (Melanoma B16 [3]; overall conclusion from the data): marked inhibitory action

CO[C@@]12[C@H](COC(N)=O)C3=C(C(=O)C(C)=C(N)C3=O)N1C[C@@H]1N[C@@H]12 [Mitomycin C, reference compound]
MST (Leukemia P388; [10]): 21.0 days
T/C (Leukemia P388; P388, 0.08 mg/kg/day, qd 1→9, ip): 114%
T/C (Leukemia P388; P388, 0.16 mg/kg/day, qd 1→9, ip): 143%
T/C (Leukemia P388; P388, 0.31 mg/kg/day, qd 1→9, ip): 152%
T/C (Leukemia P388; [10]): 200%
T/C (Leukemia P388; P388, 1.3 mg/kg/day, qd 1→9, ip): 200%
Average weight change on day 5 (Melanoma B16 [3]; [11]): +1.0 g
Average weight change on day 5 (Melanoma B16 [3]; [12]): +0.4 g
MST (Melanoma B16 [3]; [12]): 22.0 days
Average weight change on day 5 (Melanoma B16 [3]; [13]): +0.6 g
MST (Melanoma B16 [3]; [13]): 27.0 days
T/C (Melanoma B16 [3]; [11]): 100%
T/C (Melanoma B16 [3]; [12]): 128%
T/C (Melanoma B16 [3]; [13]): 169%

O=c1cccccc1O [Tropolone]
Average weight change on day 5 (Melanoma B16 [4]; 1.0 mg/kg/day): +2.3 g
Average weight change on day 5 (Melanoma B16 [4]; 3.0 mg/kg/day): +2.5 g
Average weight change on day 5 (Melanoma B16 [4]; 10 mg/kg/day): +3.3 g
Average weight change on day 5 (Melanoma B16 [4]; 30 mg/kg/day): +2.0 g
Antitumor activity against melanoma B16 (in words) (Melanoma B16 [4]; at the doses tested): did not show any activity
